# Experimental data taken from paper PMC9850727, “Benzoxazolone-5-Urea Derivatives as Human Soluble Epoxide Hydrolase (sEH) Inhibitors” (ACS Omega, 2023).
# Columns and labels:
# human recombinant sEH = target: T1, human recombinant sEH (Homo sapiens, UniProt P34913); assay: Cell-free sEH activity assay (fluorescence-based, PHOME substrate); format: biochemical; settings: mean ± SEM, n = 3, benzoxazolone-ureas (Table 2); for sEH activity % of control at 1 μM / sEH activity % of control at 10 μM: residual activity; for IC50: cell-free assay
# T1 construct: made in house; host or cells: Sf9 cells infected with recombinant baculovirus (from Dr. Bruce Hammock, UC Davis)
# T1 sequence (P34913 1-555): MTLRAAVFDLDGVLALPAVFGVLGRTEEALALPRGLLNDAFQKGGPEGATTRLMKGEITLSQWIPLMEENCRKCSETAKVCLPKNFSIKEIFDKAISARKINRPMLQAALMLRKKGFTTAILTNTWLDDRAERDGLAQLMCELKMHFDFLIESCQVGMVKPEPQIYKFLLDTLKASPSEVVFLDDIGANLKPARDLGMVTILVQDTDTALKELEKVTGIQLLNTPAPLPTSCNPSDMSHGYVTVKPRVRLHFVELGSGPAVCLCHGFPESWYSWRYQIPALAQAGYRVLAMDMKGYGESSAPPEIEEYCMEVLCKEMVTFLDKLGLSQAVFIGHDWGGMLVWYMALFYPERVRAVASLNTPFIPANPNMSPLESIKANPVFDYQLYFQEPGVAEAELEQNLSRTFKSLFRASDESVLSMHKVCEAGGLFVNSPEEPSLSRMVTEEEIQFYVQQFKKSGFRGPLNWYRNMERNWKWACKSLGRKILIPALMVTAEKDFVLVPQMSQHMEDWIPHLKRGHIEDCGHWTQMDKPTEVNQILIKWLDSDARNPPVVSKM
# Text: Inspired by the reported crystallographic screening studies,[12],[13],[15] a series of aryl amide (12, 15–21) or urea (31–39) derivatives with a benzoxazolone head group were synthesized and assessed for inhibition of human recombinant sEH in a cell-free activity assay[27] (Tables 1 and 2). […] Consequently, compounds in which the amide group is attached to the benzoxazolone ring through NH could outperform their direct reversed analogues by more favorable interactions in the central pocket of sEH. In addition, simple methylation of the benzoxazolone NH in 17–18 engendered noticeable differences in sEH inhibition relative to the unmethylated counterparts 15–16, implying that a free NH with H-bond donor property at this location is also important for the observed potency. Subsequently, the positioning of the amide group at the 5-position of the benzoxazolone ring also retained the inhibitory activity.
# Human recombinant sEH was expressed and purified as published before.[31] Briefly, Sf9 cells were infected with a recombinant baculovirus (obtained from Dr. Bruce Hammock, University of California, Davis, CA). Following 72 h of transfection, the cells were centrifuged and then sonicated (3 × 10 s at 4 °C) in lysis buffer comprising glycerol (10%), NaHPO4 (50 mM, pH 8), leupeptin (10 μg/mL), NaCl (300 mM), phenylmethanesulfonyl fluoride (1 mM), EDTA (1 mM), and soybean trypsin inhibitor (60 μg/mL). After centrifugation at 100,000g (60 min, 4 °C), the obtained supernatants were subjected to a benzylthio-sepharose-affinity chromatography and eluted with 4-fluorochalcone oxide in PBS containing 1 mM DTT and 1 mM EDTA for purification of sEH. The enzyme was dialyzed and concentrated (Millipore Amicon-Ultra-15 centrifugal filter), and the solution was further assayed for total protein content by a protein detection kit (Bio-Rad Laboratories, Munich, Germany). The epoxide hydrolase activity was measured using a fluorescence-based assay, as reported before.[27] In brief, sEH was diluted in Tris buffer (25 mM, pH 7) containing BSA (0.1 mg/mL) to a suitable enzyme concentration and pretreated with test compounds or 0.1% DMSO as vehicle for 10 min at room temperature. To start the reaction, 50 μM of the PHOME substrate (3-phenyl-cyano(6-methoxy-2-naphthalenyl)methyl ester-2-oxiraneacetic acid), a nonfluorescent compound that is enzymatically converted by sEH into fluorescent 6-methoxy-naphtaldehyde, was added at RT. The reaction was stopped by addition of ZnSO4 (200 mM) after 60 min, and fluorescence was measured (λem 465 nm, λex 330 nm) by employing a NOVOstar microplate reader (BMG LABTECH GmbH, Ortenberg, Germany). If required, the potential fluorescence of test compounds was subtracted from the readout.
# monocytes = assay: Cytotoxic activity in monocytes (MTT, metabolic activity after 24 h); format: cell-based, human; settings: metabolic activity (MTT) after 24 h, data not shown in main text (Figure S52)
# Text: The benzyl group appears as a frequently recurring chemical fragment in the architecture of amide or urea-type sEH inhibitors.[4] Therefore, we extracted this common fragment and combined it with benzoxazolone using a urea backbone with the aim of improving a sEH inhibitory potency in the newly designed analogues (Table 2). […] This implies that voluminous substituents at this position are better accommodated at the binding site. […] Taken together, 2- or appropriate 2,4-disubstitution patterns govern potent sEH inhibition in this series. Overall, the preliminary SAR in this work indicated a new favorable structural feature at the right- and left-hand side of the compounds to achieve potent sEH inhibition. Another aspect of characterizing the compounds is determining their cytotoxic activity; for this purpose, we used monocytes due to their high expression of sEH. By applying 33 and 38 to monocytes and measuring the metabolic activity after 24 h, we could exclude cytotoxic activity up to concentrations of 1 μM (data not shown).
# The cytotoxic activities of compounds were assessed as previously described.[29] […] The absorbance was determined at 570 nm using a Multiskan Spectrum microplate reader (Thermo Fisher Scientific, Schwerte, Germany). […]
SMILES,sEH activity % of control at 1 μM (human recombinant sEH),sEH activity % of control at 10 μM (human recombinant sEH),IC50 (human recombinant sEH),concentration up to which cytotoxic activity is excluded (monocytes),melting point
"O=C(NCc1ccccc1OC(F)(F)F)Nc1ccc2oc(=O)[nH]c2c1 [Compound 33, 3-(2-Oxo-2,3-dihydro-1,3-benzoxazol-5-yl)-1-{[2-(trifluoromethoxy)phenyl]methyl}urea]",1.9 ± 3.2 % of control,6.8 ± 5.9 % of control,0.39 ± 0.1 nM,> 1000 nM,
"O=C(NCc1ccc(Cl)cc1Cl)Nc1ccc2oc(=O)[nH]c2c1 [Compound 38, 1-[(2,4-Dichlorophenyl)methyl]-3-(2-oxo-2,3-dihydro-1,3-benzoxazol-5-yl)urea]",0.0 ± 0.0 % of control,0.0 ± 0.0 % of control,0.7 ± 0.08 nM,> 1000 nM,260.9 °C (dec.)
